We go through 45 sequences from paper PMC11850406, “Large-scale screening of HIV-1 T-cell epitopes restricted by 12 prevalent HLA-A allotypes in Northeast Asia and universal detection of HIV-1-specific CD8^+ T cells” (Frontiers in Microbiology, 2025).

For orientation: inhibition means the share of the control response that was lost under treatment.

The target in assay [1] is T1, HLA-A0201 (Homo sapiens, UniProt P04439, D140Y/D185E/D98H/E176V/E277Q/G131W/G231S/I119V/I121R/I166T/I218V/L300P/L318F/N151K/N90K/P208A/P217A/Q86G/Q94H/R138H/R169H/T345S).
T1 construct: expressed in transfected cells; host or cells: HMy2.CIR
Kind of assay: cell-based. The format is binding.

The target of assay [2] is T2, HLA-A1101 (Homo sapiens, UniProt P04439, A114D/D185E/E176A/F33Y/L180Q/S129P/T187R).
T2 construct: expressed in transfected cells; host or cells: HMy2.CIR
Kind of assay: cell-based. The format is binding. The settings on record: for 5-μM inhibition (%) / inhibition at 5 µM: peptide 5 μM vs FITC-labeled reference peptide 300 nM; for 5-μM inhibition (%) / 15-μM inhibition (%) / inhibition at 5 µM / inhibition at 15 µM: 24 h, 4°C, flow cytometry; for 15-μM inhibition (%) / inhibition at 15 µM: peptide 15 μM vs FITC-labeled reference peptide 300 nM; for inhibition at 5 µM: read-out: 5-μM inhibition (%); for inhibition at 15 µM: read-out: 15-μM inhibition (%).

The target of assay [3] is HLA-A3303 (Homo sapiens, UniProt P04439, A270S/D185E/E176V/E277Q/E87N/F33T/G231S/H175R/I121M/I218V/I322F/K168Q/L300P/L318F/M331R/P217A/Q86R/Q94H/R138Q/T323A/T345S/T97I/V358M). Kind of assay: Peptide competitive binding assay, HMy2.CIR cells expressing A3303. Particulars: for inhibition at 5 µM / 5-μM inhibition (%): peptide 5 μM vs FITC-labeled reference peptide 300 nM; for inhibition at 5 µM / inhibition at 15 µM / 5-μM inhibition (%) / 15-μM inhibition (%): 24 h, 4°C, flow cytometry; for inhibition at 15 µM / 15-μM inhibition (%): peptide 15 μM vs FITC-labeled reference peptide 300 nM; for pIC50: read-out: Affinity. In general terms: In flow cytometry, cells or beads pass a laser one at a time.

Assay [4] concerns the target HLA-A2402 (Homo sapiens, UniProt P04439, D101N/D140Y/D185E/E176V/E190D/F33S/G103R/G107R/I119L/I121M/I306V/K335N/L105A/L180Q/L300P/N151K/N90K/Q86E/Q94H/R106L/R138H/R89G/T104I/T345S/V100E/W191G/Y123F). The assay is described as follows: cell-based. Particulars: for inhibition at 5 µM / inhibition at 15 µM / 5-μM inhibition (%) / 15-μM inhibition (%): A2402, 24 h, 4°C, flow cytometry; for inhibition at 5 µM / 5-μM inhibition (%): peptide 5 μM vs FITC-labeled reference peptide 300 nM; for inhibition at 15 µM / 15-μM inhibition (%): peptide 15 μM vs FITC-labeled reference peptide 300 nM. Type of assay: binding.

Setting [5] is: A0201, peptide 5 μM vs FITC-labeled reference peptide 300 nM, 24 h, 4°C, flow cytometry.
The mark [6] stands for this setting: A0201, peptide 15 μM vs FITC-labeled reference peptide 300 nM, 24 h, 4°C, flow cytometry.
Where [7] appears, read: A1101, class from inhibition at 5 and 15 μM of FITC-labeled reference peptide binding, read-out: Affinity.

pIC50: −log10 of the molar value. Where two headings read alike, the source gives them in different places. Where no end group is shown, it is not given here.

With ALQDSGSEV [Peptide P18], in assay [1] (setting [5]), the “5-μM inhibition (%)” value amounted to 15.88%. For the same sequence, the “15-μM inhibition (%)” value in assay [1] (setting [6]) was 41.90%.

In assay [1], ALTDIVPLT [Peptide P12] gave a pIC50 of 4.82 to 5.30. In assay [1] (A0201, peptide 5 μM vs FITC-labeled reference peptide 300 nM, 24 h, 4°C, flow cytometry, read-out: 5-μM inhibition (%)), the inhibition at 5 µM was 28%. The inhibition at 15 µM in assay [1] (A0201, peptide 15 μM vs FITC-labeled reference peptide 300 nM, 24 h, 4°C, flow cytometry, read-out: 15-μM inhibition (%)) was 72.2%.

As to ASCDQCQLK [Peptide P38], in assay [2] (A1101), the “5-μM inhibition (%)” value stood at 12.62% and the “15-μM inhibition (%)” value was 33.56%.

Regarding ATESIVIWGK [Peptide P36], the pIC50 in assay [2] is greater than 5.30. Moreover, in assay [2] (A1101), the inhibition at 5 µM came to 88.3% and the inhibition at 15 µM is 90.7%.

CTPAGYAILK [Peptide P23]: the pIC50 in assay [2] (setting [7]) is greater than 5.30. In assay [2] (A1101), the inhibition at 5 µM amounted to 70.1% and the inhibition at 15 µM came to 88.1%.

Turning to DAWEKIRLR [Peptide P104], in assay [3] (A3303), 5 µM produced 71.8% inhibition and the inhibition at 15 µM was determined as 82.5%. Further, in assay [3], the pIC50 is greater than 5.30.

Take ELYPLTSLK [Peptide P29]: the pIC50 in assay [2] was greater than 5.30. In assay [2] (A1101), the inhibition at 5 µM turned out to be 51.1% and the inhibition at 15 µM was 79.9%.

For FYCNTSGLF [Peptide P46], in assay [4], the pIC50 is greater than 5.30, the inhibition at 5 µM is 95% and testing at 15 µM gave an inhibition of 99.5%.

In assay [4], FYCNTTKLF [Peptide P49] had a pIC50 of 4.82 to 5.30, an inhibition at 5 µM of 49.2% and an inhibition at 15 µM of 60.5%.

In assay [2], GSNFTSAAVK [Peptide P37] had a pIC50 greater than 5.30. In addition, in assay [2] (A1101), the inhibition at 5 µM was determined as 74% and the inhibition at 15 µM stood at 91%.

Take GTYTPNGTK [Peptide P22]: in assay [2], the pIC50 was 4.82 to 5.30. Moreover, in assay [2] (A1101), the inhibition at 5 µM was determined as 43.2% and the inhibition at 15 µM is 87.4%.

Consider HYMLKHLVW [Peptide P55], for which, in assay [4], the “5-μM inhibition (%)” value is listed as 13.48% and the “15-μM inhibition (%)” value is listed as 31.20%.

Sequence ITNWLWYIK [Peptide P20] gave a pIC50 in assay [2] greater than 5.30. In assay [2] (A1101), the inhibition at 5 µM came out at 69.8% and the inhibition at 15 µM is 71%.

On to IVIWGKTPK [Peptide P43], for which the pIC50 in assay [2] is greater than 5.30. In assay [2] (A1101), the inhibition at 5 µM is 80.2% and the inhibition at 15 µM was found to be 90.1%.

For IVKCFNCGK [Peptide P32], in assay [2] (A1101), the “5-μM inhibition (%)” value stood at 20.16% and the “15-μM inhibition (%)” value was 36.81%.

As for IWGKTPKFRL [Peptide P62], in assay [4], the “5-μM inhibition (%)” value turned out to be 21.17% and the “15-μM inhibition (%)” value was determined as 37.66%.

As to IYKRWIILGL [Peptide P56], in assay [4], the “5-μM inhibition (%)” value is given as 20.61% and the “15-μM inhibition (%)” value was determined as 25.51%.

KTIIVHLNK [Peptide P19]: in assay [1] (setting [5]), the “5-μM inhibition (%)” value came out at 0.00%. Besides, the “15-μM inhibition (%)” value in assay [1] (setting [6]) was 4.54%.

In assay [4], KYRLKHLVW [Peptide P54] showed a pIC50 of 4.82 to 5.30, an inhibition at 5 µM of 35.8% and an inhibition at 15 µM of 79.5%.

Turning to MAVFIHNFKR [Peptide P109], in assay [3] (A3303), the inhibition at 5 µM is 55.1% and 15 µM produced 56.1% inhibition. The pIC50 in assay [3] is greater than 5.30.

Take MYAPPISGR [Peptide P106]: the pIC50 in assay [3] (A3303, class from inhibition at 5 and 15 μM of FITC-labeled reference peptide binding) is greater than 5.30. In assay [3] (A3303), this sequence yielded an inhibition at 5 µM of 72.8% and an inhibition at 15 µM of 81.5%.

Consider MYSPTSILDI [Peptide P52], for which, in assay [4], the pIC50 was 4.82 to 5.30, 5 µM produced 21.6% inhibition and at 15 µM the inhibition was 79.4%.

Turning to MYSPVSILDI [Peptide P53], in assay [4], the pIC50 was greater than 5.30, the inhibition at 5 µM was found to be 75.5% and the inhibition at 15 µM was 98.1%.

For NITGILLTR [Peptide P107], in assay [3] (A3303), the “5-μM inhibition (%)” value stood at 34.61% and the “15-μM inhibition (%)” value was determined as 49.22%.

In assay [4], NYTNQIYEI [Peptide P47] had a pIC50 greater than 5.30, an inhibition at 5 µM of 87.5% and an inhibition at 15 µM of 94.5%.

In assay [4], PYNTPVFAI [Peptide P63] gave a pIC50 of 4.82 to 5.30, an inhibition at 5 µM of 25.7% and an inhibition at 15 µM of 55.6%.

Consider QTNSAILMQR [Peptide P105], for which, in assay [3] (A3303), the “5-μM inhibition (%)” value stood at 29.22% and the “15-μM inhibition (%)” value amounted to 45.63%.

For QTVYALFYR [Peptide P108], in assay [3] (A3303), the “5-μM inhibition (%)” value amounted to 35.63% and the “15-μM inhibition (%)” value amounted to 40.50%.

On to RQGTISFNF [Peptide P61], for which, in assay [4], the “5-μM inhibition (%)” value is recorded as 12.82% and the “15-μM inhibition (%)” value is recorded as 41.47%.

Regarding RTAHTNDVK [Peptide P39], in assay [2] (setting [7]), the pIC50 was greater than 5.30. Further, in assay [2] (A1101), the inhibition at 5 µM amounted to 60.4% and the inhibition at 15 µM came to 86.2%.

In the case of SILRGGKLDK [Peptide P30], in assay [2] (A1101), the “5-μM inhibition (%)” value was 19.77% and the “15-μM inhibition (%)” value is reported as 47.09%.

For SSWSNKSQK [Peptide P24], in assay [2] (A1101), the “5-μM inhibition (%)” value is listed as 20.55% and the “15-μM inhibition (%)” value is 36.55%.

In assay [2], SVIKQACPK [Peptide P21] showed a pIC50 of 4.82 to 5.30. Further, in assay [2] (A1101), the inhibition at 5 µM is 29.7% and the inhibition at 15 µM is 68.9%.

As to SVPLDESFRK [Peptide P42], the pIC50 in assay [2] was greater than 5.30. In assay [2] (A1101), the inhibition at 5 µM worked out at 89.9% and the inhibition at 15 µM stood at 93.8%.

Turning to SVQCTHGIK [Peptide P25], the pIC50 in assay [2] (setting [7]) was greater than 5.30. Besides, in assay [2] (A1101), the inhibition at 5 µM came out at 61.4% and the inhibition at 15 µM came to 85.6%.

In the case of TFYVDGAASR [Peptide P110], in assay [3] (A3303), the inhibition at 5 µM was determined as 78.2% and the inhibition at 15 µM amounted to 90.1%. Besides, the pIC50 in assay [3] is greater than 5.30.

In assay [2], TTLFCASDAK [Peptide P28] gave a pIC50 greater than 5.30. For the same sequence, in assay [2] (A1101), the inhibition at 5 µM worked out at 78.4% and the inhibition at 15 µM was found to be 92.2%.

In turn, TVQPIQLPEK [Peptide P35] had a pIC50 in assay [2] greater than 5.30. For the same sequence, in assay [2] (A1101), the inhibition at 5 µM stood at 88.7% and the inhibition at 15 µM stood at 93.9%.

For TYQIYQEPF [Peptide P58], in assay [4], the pIC50 was greater than 5.30, the inhibition at 5 µM came out at 54.1% and the inhibition at 15 µM amounted to 95.3%.

As for VQMAVFIHNF [Peptide P64], in assay [4], the pIC50 is 4.82 to 5.30, at 5 µM the inhibition was 31.2% and the inhibition at 15 µM is 50.2%.

Consider VTENFNMWK [Peptide P26], for which the pIC50 in assay [2] is greater than 5.30. Further, in assay [2] (A1101), the inhibition at 5 µM was determined as 86.6% and the inhibition at 15 µM is 92.9%.

As for WWMEYWQATW [Peptide P57], in assay [4], the pIC50 is 4.82 to 5.30, the inhibition at 5 µM was found to be 29.2% and the inhibition at 15 µM came out at 70.7%.

WYIKIFIII [Peptide P48]: in assay [4], the “5-μM inhibition (%)” value is on record as 1.56% and the “15-μM inhibition (%)” value turned out to be 6.91%.

On to WYIKIFIMI [Peptide P51], for which, in assay [4], the “5-μM inhibition (%)” value amounted to 3.34% and the “15-μM inhibition (%)” value was 29.97%.

In assay [4], YWQATWIPEW [Peptide P60] had a pIC50 greater than 5.30, an inhibition at 5 µM of 97.5% and an inhibition at 15 µM of 97.8%.
